Results on 13 compounds are retold here after patent publication US7135466B2 (Kirin Beer Kabushiki Kaisha, priority 1999, dated 2006).

Molecules are shown by their SMILES. pIC50: −log10 of the molar value. A value given as a limit tells only on which side of the number the result lay.

In one experiment the target is T1, PDGF-Ra (Homo sapiens, UniProt P16234).
T1 construct: host or cells: G-292 human osteosarcoma cells
The experiment in a line: Inhibitory activity against PDGF-Ra phosphorylation by PDGF-AA stimulation using G292. It counts as cell-based. Conditions: Pharmacological Test Example 1; > means inhibition at indicated concentration not more than 50%, < and << not less than 50%; read-out: PDGF (E) IC50. The essentials: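 In G-292 osteosarcoma cells kept overnight in 0.1% FBS, compound exposure (1 hr, 37 °C) preceded PDGF-AA stimulation at 50 ng/ml for 5 min; receptor phosphotyrosine was then detected by PY-20 capture ELISA.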

The next experiment deals with T2, c-kit (Homo sapiens, UniProt P10721).
T2 construct: MO7e (human megakaryocytic leukemia cell line) which had been arrested for 20 hr; endogenous in cells; host or cells: MO7e human megakaryocytic leukemia cell line
T2 sequence (P10721 26-976): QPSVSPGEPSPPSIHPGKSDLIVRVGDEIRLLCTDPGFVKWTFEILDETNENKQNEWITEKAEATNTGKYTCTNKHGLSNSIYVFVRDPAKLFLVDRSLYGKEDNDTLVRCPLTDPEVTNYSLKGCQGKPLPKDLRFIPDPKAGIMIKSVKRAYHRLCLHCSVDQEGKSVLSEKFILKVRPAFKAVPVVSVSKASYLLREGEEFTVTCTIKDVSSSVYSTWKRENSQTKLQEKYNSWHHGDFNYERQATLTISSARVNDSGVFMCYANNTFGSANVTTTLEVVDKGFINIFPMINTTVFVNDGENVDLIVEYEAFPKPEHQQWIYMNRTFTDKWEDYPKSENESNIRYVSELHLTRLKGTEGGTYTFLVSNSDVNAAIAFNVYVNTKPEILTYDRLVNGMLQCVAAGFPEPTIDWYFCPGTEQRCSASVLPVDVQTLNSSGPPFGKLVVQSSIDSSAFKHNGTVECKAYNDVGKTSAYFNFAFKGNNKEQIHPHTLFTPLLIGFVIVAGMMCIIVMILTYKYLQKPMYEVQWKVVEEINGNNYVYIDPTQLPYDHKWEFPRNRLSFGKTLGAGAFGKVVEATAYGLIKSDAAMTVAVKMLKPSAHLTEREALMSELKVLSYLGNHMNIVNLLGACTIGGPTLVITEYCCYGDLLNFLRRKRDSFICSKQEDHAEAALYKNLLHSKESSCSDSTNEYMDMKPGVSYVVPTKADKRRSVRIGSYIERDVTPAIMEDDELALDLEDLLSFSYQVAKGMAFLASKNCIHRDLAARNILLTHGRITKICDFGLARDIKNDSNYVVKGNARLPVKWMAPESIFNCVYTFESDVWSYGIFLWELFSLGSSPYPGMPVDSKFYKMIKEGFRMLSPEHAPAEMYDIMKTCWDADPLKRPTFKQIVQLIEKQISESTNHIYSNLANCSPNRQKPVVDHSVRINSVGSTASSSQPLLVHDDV
The experiment is described as follows: Inhibitory activity against c-kit autophosphorylation (MO7e cells, h-SCF). Type of experiment: cell-based. Conditions: for pIC50: MO7e cells, h-SCF 50 ng/ml, read-out: c-kit IC50. The essentials: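 Ligand-induced c-kit tyrosine phosphorylation is measured in MO7e cells that were quiesced 20 hr and preincubated with compound for 1 hr prior to a 5 min pulse of 50 ng/ml human SCF. Phospho-c-kit is detected by anti-phosphotyrosine capture ELISA, A450.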

T1 sequence (P16234 24-1089): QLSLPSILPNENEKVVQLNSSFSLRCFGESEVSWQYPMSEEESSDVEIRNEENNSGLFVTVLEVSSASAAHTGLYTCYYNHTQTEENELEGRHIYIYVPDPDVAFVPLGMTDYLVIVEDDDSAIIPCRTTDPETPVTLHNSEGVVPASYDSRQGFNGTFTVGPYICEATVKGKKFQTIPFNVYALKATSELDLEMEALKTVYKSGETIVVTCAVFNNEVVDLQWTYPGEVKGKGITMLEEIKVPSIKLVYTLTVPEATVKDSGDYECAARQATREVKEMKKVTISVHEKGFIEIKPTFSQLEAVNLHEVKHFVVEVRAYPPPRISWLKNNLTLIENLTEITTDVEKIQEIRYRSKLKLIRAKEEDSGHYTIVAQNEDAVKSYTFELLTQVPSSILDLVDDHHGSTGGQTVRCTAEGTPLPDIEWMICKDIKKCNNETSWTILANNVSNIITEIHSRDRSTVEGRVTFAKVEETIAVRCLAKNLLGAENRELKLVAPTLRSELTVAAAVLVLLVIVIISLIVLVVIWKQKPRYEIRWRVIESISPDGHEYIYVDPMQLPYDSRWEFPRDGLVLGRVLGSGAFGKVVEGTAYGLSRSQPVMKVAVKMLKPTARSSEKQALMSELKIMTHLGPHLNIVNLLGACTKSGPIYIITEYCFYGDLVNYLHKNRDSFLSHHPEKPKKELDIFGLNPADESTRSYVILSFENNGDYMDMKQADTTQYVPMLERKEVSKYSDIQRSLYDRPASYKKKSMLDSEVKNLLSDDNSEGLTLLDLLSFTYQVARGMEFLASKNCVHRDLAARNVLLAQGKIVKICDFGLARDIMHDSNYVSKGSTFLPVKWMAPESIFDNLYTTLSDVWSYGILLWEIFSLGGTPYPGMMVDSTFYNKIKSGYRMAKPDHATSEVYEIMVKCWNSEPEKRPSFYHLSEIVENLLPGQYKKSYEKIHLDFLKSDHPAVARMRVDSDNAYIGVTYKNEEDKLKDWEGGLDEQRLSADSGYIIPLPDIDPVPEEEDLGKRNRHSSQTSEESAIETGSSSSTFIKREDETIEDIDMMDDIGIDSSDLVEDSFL

`CCC(OC(=O)Nc1cc(C)c(Oc2ccnc3cc(OC)c(OC)cc23)cc1C)c1ccccc1` (centres unmarked) [Example 264, 1-Phenylpropyl N-{4-[(6,7-dimethoxy-4-quinolyl)oxy]-2,5-dimethylphenyl}carbamate]: the negative-log IC50 (pIC50) on PDGF-Ra is 7.38; at c-kit, 6.31.
As for `CCC(OC(=O)Nc1ccc(Oc2ccnc3cc(OC)c(OC)cc23)c(C)c1C)c1ccccc1` (centres unmarked) [Example 265, 1-Phenylpropyl N-{4-[(6,7-dimethoxy-4-quinolyl)oxy]-2,3-dimethylphenyl}carbamate], the pIC50 was 7.46 at PDGF-Ra and 6.91 on c-kit.
For `COc1cc2nccc(Oc3ccc(NC(=O)Oc4c(C)cccc4C)cc3)c2cc1OC` [Example 269, 2,6-Dimethylphenyl N-{4-[(6,7-dimethoxy-4-quinolyl)oxy]phenyl}carbamate], the pIC50 at PDGF-Ra was 7.77. Besides, the inhibition at 1 µM at c-kit (Mo7e, figure in parentheses in −( ), at 1000 nM) was found to be 48%.
In the case of `COc1cc2nccc(Oc3cc(C)c(NC(=O)Oc4c(C)cccc4C)cc3C)c2cc1OC` [Example 270, 2,6-Dimethylphenyl N-{4-[(6,7-dimethoxy-4-quinolyl)oxy]-2,5-dimethylphenyl}carbamate], the pIC50 was 7.19 at PDGF-Ra and 6.33 at c-kit.
On the same counts, the results for `COc1cc2nccc(Oc3ccc(NC(=O)Oc4c(C)cccc4C)c(C)c3C)c2cc1OC` [Example 271, 2,6-Dimethylphenyl N-(4-[(6,7-dimethoxy-4-quinolyl)oxy]-2,3-dimethylphenyl}carbamate] are 7.66 and 6.89.
On to `CCCCc1ccc(OC(=O)Nc2cc(C)c(Oc3ccnc4cc(OC)c(OC)cc34)cc2C)cc1` [Example 272, 4-Butylphenyl N-{4-[(6,7-dimethoxy-4-quinolyl)oxy]-2,5-dimethylphenyl}carbamate], for which the pIC50 at PDGF-Ra was 7.21; on c-kit, 6.53.
Consider `CCCCc1ccc(OC(=O)Nc2ccc(Oc3ccnc4cc(OC)c(OC)cc34)c(C)c2C)cc1` [Example 273, 4-Butylphenyl N-{4-[(6,7-dimethoxy-4-quinolyl)oxy]-2,3-dimethylphenyl}carbamate], for which the pIC50 on PDGF-Ra was 7.64; at c-kit, 6.97.
For the compound `COc1cc2nccc(Oc3cc(C)c(NC(=O)Oc4ccc(C(C)(C)C)cc4)cc3C)c2cc1OC` [Example 274, 4-(Tert-butyl)phenyl N-{4-[(6,7-dimethoxy-4-quinolyl)oxy]-2,5-dimethylphenyl}carbamate], the pIC50 on PDGF-Ra is 7.60; at c-kit, 6.40.
Take `COc1cc2nccc(Oc3ccc(NC(=O)Oc4ccc(C(C)(C)C)cc4)c(C)c3C)c2cc1OC` [Example 275, 4-(Tert-butyl)phenyl N-{4-[(6,7-dimethoxy-4-quinolyl)oxy]-2,3-dimethylphenyl}carbamate]: the negative-log IC50 (pIC50) on PDGF-Ra is 7.80; on c-kit, 6.99.
As for `CCCC(CC)OC(=O)Nc1cc(C)c(Oc2ccnc3cc(OC)c(OC)cc23)cc1C` (centres unmarked) [Example 276, 1-Ethylbutyl N-{4-[(6,7-dimethoxy-4-quinolyl)oxy]-2,5-dimethylphenyl}carbamate], the pIC50 is 7.80 on PDGF-Ra and 6.38 at c-kit.
On to `CCCC(CC)OC(=O)Nc1ccc(Oc2ccnc3cc(OC)c(OC)cc23)c(C)c1C` (centres unmarked) [Example 277, 1-Ethylbutyl N-{4-[(6,7-dimethoxy-4-quinolyl)oxy]-2,3-dimethylphenyl}carbamate], for which the pIC50 was 8.00 at PDGF-Ra and 7.28 on c-kit.
Taken in the same sequence, the figures for `COc1cc2nccc(Oc3cc(C)c(NC(=O)Oc4ccccc4OC)cc3C)c2cc1OC` [Example 278, 2-Methoxyphenyl N-{4-[(6,7-dimethoxy-4-quinolyl)oxy]-2,5-dimethylphenyl}carbamate] were 7.28 and 6.54.
On the same counts, the results for `COc1cc2nccc(Oc3ccc(NC(=O)Oc4ccccc4OC)c(C)c3C)c2cc1OC` [Example 279, 2-Methoxyphenyl N-{4-[(6,7-dimethoxy-4-quinolyl)oxy]-2,3-dimethylphenyl}carbamate] are above 8.00 and above 7.52.

The term pIC50 denotes −log10 of the IC50, conventionally taken in molar units. The term inhibition denotes the drop in the measured response relative to a control, in per cent.
